Experimental data reported in PMC9541320, “Machine Learning Guided Discovery of Non‐Hemolytic Membrane Disruptive Anticancer Peptides” (Chemmedchem, 2022).
In brackets after ≈: the same amount, converted by molar mass. Like-named read-outs stand apart in the source and are kept apart here. Where a SMILES comes first, the peptide text is derived from it. Where no end group is shown, it is not given here. [ ]: non-standard residue; d: D form.

Tests used:
[1] = tested on: Acinetobacter baumannii (ATCC19606); assay type: cell-based
Protocol: (§1) […]. Minimal inhibitory concentration (MIC) determination. The minimal inhibitory concentration (MIC) was determined by using broth microdilution method. Antimicrobial activity was assayed against P. aeruginosa PAO1 (WT), Acinetobacter baumannii (ATCC19606). […]. The next day, 15 μL of MTT solution was added to each well of the plate, such a way that MIC was defined as the lowest concentration of the peptide that inhibited visible growth of the tested bacteria.

HEK293 cells = test: Cell viability assay by AlamarBlue, HEK293 cells (model for non-cancer cells); assay type: cell-based; settings: 72 h incubation at 37 °C in DMEM high glucose medium with 10 % FBS; read-out: Toxicity IC50 HEK 293
Protocol: (§2) To measure potential ACP activity, we exposed HeLa cells to 50 μM of each peptide for 72 h and quantified remaining live cells with Alamar Blue. We performed full IC50 determination for active sequences under the same conditions and similarly profiled HEK293 cells as a model for non‐cancer cells.
(§3) Cell Viability assay by AlamarBlue. […] HEK‐293 were seeded into well plates, pretreated with solution of poly‐L‐Lysine. The medium was removed and the compounds at increasing concentration were added into the wells. The cells were incubated for 72 h in 200 μL/well at 37 °C in corresponding medium in the presence of 5 % CO2. After incubation time the medium was removed and replaced by 100 μL/well of medium containing 10 % AlamarBlue. The cells were incubated for 3–5 h at 37 °C with 5 % CO2 in a humidified atmosphere. The fluorescence was then measured on a Tecan Infinite M1000 Pro plate reader at λex 560 nm and λem 590 nm. The value was normalized according to the untreated cells.

P. aeruginosa PAO1 (WT) = assay type: cell-based, Pseudomonas aeruginosa
Protocol: as §1

HeLa cells = test: Cell viability assay by AlamarBlue, HeLa cells; assay type: cell-based; settings: 72 h incubation at 37 °C in DMEM high glucose medium with 10 % FBS; read-out: Toxicity IC50 HeLa
Protocol: as §2, §3

[2] = tested on: human red blood cells (hRBC); test: Hemolysis assay on human red blood cells; assay type: cell-based
Excerpt: Synthesis and bioactivity testing. We prepared the 33 selected peptides, as well as the reference ACP LL‐III, by semi‐automated high‐temperature Fmoc solid‐phase peptide synthesis and obtained pure samples by preparative HPLC. All peptides were well‐behaved in terms of aqueous solubility, in line with the presence of two to seven cationic residues (lysine or arginine) in each sequence (Table 1). […]. We performed full IC50 determination for active sequences under the same conditions and similarly profiled HEK293 cells as a model for non‐cancer cells. Finally, we determined peptide concentrations causing 50 % hemolysis (HC50) on human red blood cells (hRBC) by serial 2‐fold dilution.
Hemolysis assay. Compounds were subjected to a hemolysis assay to assess the hemolytic effect on human red blood cells (hRBCs). […]. Controls on each plate included a blank medium control (PBS 100 μL) and a hemolytic activity control (0.1 % Triton^TM X‐100). 100 μL of hRBC suspension was incubated with 100 μL of each sample in PBS in V‐shape 96‐well plate. […]. Hemolysis was measured by analyzing the absorbance of free hemoglobin leaked out of compromised in the supernatants at 540 nm with a plate reader (Tecan instrument Infinite M1000). The percentage of hemolysis at each concentration was detected and HC50 was determined.

[3] = tested on: human red blood cells (hRBC); settings: below 200 μM; cited from earlier work
[4] = incubation 16–20 h at 37 °C in MH medium
[5] = human red blood cells in 10 mM phosphate buffer saline, pH 7.4, 25 °C

| Molecule | MIC A. baumannii ([1]; ATCC19606) [µg/mL] | IC50 (HEK293 cells) [µM] | MIC PAO1 (P. aeruginosa PAO1 (WT); PAO1) [µg/mL] | IC50 (HeLa cells) [µM] | Hemolysis HC50 hRBC ([2]; pH 7.4) [µM] | MIC A. baumannii [1, 4] [µg/mL] | MIC PAO1 (P. aeruginosa PAO1 (WT); [4]) [µg/mL] | Hemolysis HC50 hRBC [2, 5] [µM] | documented hemolysis [3] |
| --- | --- | --- | --- | --- | --- | --- | --- | --- | --- |
| C[C@@H](NC(=O)[C@H](N)Cc1ccccc1)C(=O)N[C@H](CCCCN)C(=O)N[C@H](CCCCN)C(=O)N[C@H](Cc1ccccc1)C(=O)N[C@H](Cc1ccccc1)C(=O)N[C@H](CCCCN)C(=O)N[C@H](CCCCN)C(=O)N[C@H](Cc1ccccc1)C(=O)N[C@H](C)C(=O)N[C@H](CCCCN)C(=O)N[C@H](Cc1ccccc1)C(=O)N[C@H](C)C(=O)N[C@H](Cc1ccccc1)C(=O)N[C@H](CCCCN)C(N)=O [DA1, fakkffkkfakfafk] (H-[dF][dA][dK][dK][dF][dF][dK][dK][dF][dA][dK][dF][dA][dF][dK]-NH2) | 4 (≈ 2.12 µM) | 15 ± 2.3 | 4 (≈ 2.12 µM) | 7.9 ± 0.3 | >200 |  |  |  |  |
| CC[C@@H](C)[C@@H](NC(=O)[C@@H](CCCCN)NC(=O)[C@@H](CCCCN)NC(=O)[C@@H](Cc1c[nH]c2ccccc12)NC(=O)[C@@H](CC(N)=O)NC(=O)[C@H](N)C(C)C)C(=O)N[C@H](CC(C)C)C(=O)NCC(=O)N[C@H](CCCCN)C(=O)N[C@@H](C(=O)N[C@@H](C(=O)N[C@H](CCCCN)C(=O)N[C@@H](C(=O)N[C@@H](C(=O)N[C@H](CCCCN)C(N)=O)C(C)C)C(C)C)[C@H](C)CC)[C@H](C)CC [DLL‐III, vnwkkilgkiikvvk] (H-[dV][dN][dW][dK][dK][dI][dL]G[dK][dI][dI][dK][dV][dV][dK]-NH2) |  | 14.5 ± 2 |  | 5 ± 0.7 |  | 2 (≈ 1.13 µM) | 4 (≈ 2.27 µM) | >200 |  |
| VNWKKILGKIIKVVK-NH2 [LL‐III, lasioglossin III] |  | 15 ± 3 |  | 6 ± 0.5 |  | 4 |  | >200 | non‐hemolytic |
| anwkkwigkviklvk [DB1] |  | 13.1 ± 2.8 |  | 6.2 ± 1.1 |  | 2 | 4 |  |  |
